Assay results taken from patent US11771737B2, “Treating or preventing adverse liver conditions” (priority 2017, dated 2023).

Assays:
hepatic NKT cells [1] = assay: In vivo bile acids feeding, hepatic NKT cell levels; details: ABX-administered mice, oral gavage 6 mg/15 g body weight at 48, 24 and 16 hrs
From the text: Mice were kept on ABX cocktail and fresh ABX was replaced every other day. Mice were fed with bile acids by oral gavage 48, 24 and 16 hrs prior to sacrifice.

CXCL16 [2] = assay: CXCL16 mRNA in SK-HEP1 cells administered bile acids; assay type: cell-based, human; details: 24 hours
From the text: FIG. 34A is a dot plot showing CXCL16 mRNA levels measured by real-time PCR in SK-HEP1 cells administered different bile acids, in accordance with embodiments of the invention. n=6, p<0.05, one-way ANOVA.
(§1) Primary mice liver sinusoidal endothelia cells were isolated as previously described (Limmer et al., Nat. Med., 6: 1348-1354 (2000), incorporated by reference herein). Briefly, mice were CO2 euthanized, and then the portal vein was cannulated, and the liver was perfused with 0.05% collagenase in Ca^2+ deprived medium. Liver cells were dissociated, and parenchymal cells were killed by incubation in 0.04% collagenase in Gey's balanced salt solution at 37° C. for 15 minutes. Then density gradient centrifugation was performed using Nycodenz solution at the final solution of 1.089 g/cm^3. Liver sinusoidal endothelial cells (LSEC) were isolated using anti-LSEC microbeads (Miltenyi, Bergisch Gladbach, Germany) according to the manufacturer's instructions. LSECs or the human SK-HEP1 cell line (ATCC, HTB-52) were administered different bile acids for 24 hours. Gene expression was analyzed by real-time PCR. Taurocholic acid (TCA), chenodeoxycholic acid (CDCA), deoxycholic acid (DCA), and taurodeoxycholic acid (TDCA) were purchased from Sigma (now Millpore-Sigma, St. Louis, Mo., USA). […]

CXCL16 [3] = assay: CXCL16 mRNA in primary murine LSECs administered bile acids; assay type: cell-based, mice; details: primary murine LSECs in vitro, 24 hours
From the text: FIG. 28E is a dot plot showing CXCL16 mRNA levels of isolated LSECs administered different bile acids, in accordance with embodiments of the invention. n=5, p<0.05, one-way ANOVA.
FIG. 28F is a dot plot showing CXCL16 mRNA levels of isolated LSECs administered a combination of T-b-MCA with T-w-MCA or ω-MCA. n=5, p<0.05, one-way ANOVA.
as §1, with “PCR.” for “PCR. Taurocholic acid (TCA), chenodeoxycholic acid (CDCA), deoxycholic acid (DCA), and taurodeoxycholic acid (TDCA) were purchased from Sigma (now Millpore-Sigma, St. Louis, Mo., USA).”

hepatic NKT cells [4] = assay: Flow cytometry of liver and spleen immune cell subsets of treated mice; assay type: in vivo; details: single antibiotic; for hepatic CD4+ or CD8+ T cells: FIGS. 29H and 29I; for hepatic NKT cells: naïve C57BL/6 mice
Procedure: Cells were surface-labelled with the indicated antibodies for 15 min at 4° C. Intracellular staining using a Foxp3/transcription factor staining buffer set (eBioscience, now part of ThermoFisher Scientific, Waltham, Mass., USA) was used according the manufacturer's instructions. Flow cytometry was performed on a BD LSRFortessa platform (BD Biosciences, San Jose, Calif., USA) and results were analyzed using FlowJo software version 9.3.1.2 (TreeStar, Ashland, Oreg., USA). Dead cells were excluded by using live/dead fixable near-IR dead cell staining kit (ThermoFisher Scientific).
The following antibodies were used for flow cytometry analysis: anti-TCRβ-BV510 (clone H57-587, Biolegend, San Diego, Calif., USA), PBS57/CD1d-tetramer-APC (NIH core facility, Bethesda, Md., USA), anti-CXCR6-FITC (clone SA051D1, Biolegend), anti-CD3-PE (clone 17A2, Biolegend), anti-CD4-PE (clone RM4-5, Biolegend), anti-CD4-Alexa Fluor 700 (clone GK1.5, Biolegend), anti-CD8-BV210 (clone 53-61 Biolegend), anti-CD19-PerCP/Cy5.5 (clone eBiolD3, eBioscience), anti-CD49b (clone DX5, eBioscience), anti-TCRγ/δ-PE, (clone GL3, BD pharmingen, BD Biosciences), anti-CD11b-BV421 (clone M1/70, Biolegend), anti-Ly6G-Alexa Fluor 700 (clone 1A8, Biolegend), anti-Ly6C-APC (clone HK1.4, Biolegend), anti-CD44-PE/Cy7 (clone IM7, eBioscience), anti-CD62L-PerCP/Cy5.5 (MEL-14, Biolegend), anti-CD69-Pacific blue (clone H1.2F3, Biolegend), anti-CD25-FITC (clone 7D4, BD pharmingen), anti-4-1BB-PE (clone 17B5, Biolegend), anti-Foxp3-Alexa Fluor 488 (clone 22F6, Biolegend), anti-Tbet-Pacific Blue (clone 4B10, Biolegend), anti-RORγ-PE (clone B2D, eBioscience), anti-PLZF-PerCP/Cy5.5 (clone 9E12, Biolegend), anti-CD1d-PE (clone 1B1, eBioscience), anti-IFNγ-PE (clone XMG1.2, BD Biosciences), and anti-TNFα-PerCP/Cy5.5 (clone MP6-XT22, Biolegend).
The following markers were used for identifying different immune cell subsets: TCRβ^+CD1d-Teteramer^+ for NKT cells, CD3^+CD4^hi for hepatic CD4^+ T cells, CD3^+CD8^+ for CD8^+ T cells, CD3^−CD19^+ for B cells, CD3^−CD49b^+ for NK cells, CD3^+TCRγ/δ^+ for γ/δ T cells, CD11b^+Ly6G^+Ly6C^lo for G-MDSC. Absolute numbers were calculated by multiplying frequencies obtained from flow cytometry by the total live mononuclear cell count, and then divided by liver weight.

[5] = reported; cited from earlier work
Clostridum Cluster XIVa = assay: Stool levels of Clostridium Cluster XIVa by real-time PCR; assay type: in vivo, mice; details: single antibiotic administration
Procedure: FIG. 31 is a dot plot showing the stool levels of Clostridum Cluster XIVa from single antibiotic administration measured by real-time PCR. Mice were administered vancomycin, neomycin, cefoparazone or H2O. n=4 for H2O, 10 for vancomycin, 5 for neomycin, p<0.05, one-way ANOVA.
The 7α-dehydroxylation reaction is the most quantitatively important process performed by the gut bacteria in the production of secondary bile acids. This multistep biochemical process is restricted to a narrow phylogenetic group of gram-positive bacterial species belonging to the Clostridium cluster XIV.

[6] = oral vancomycin, cited from earlier work
stool bacteria = assay: Stool bacteria analysis by 16S rRNA sequencing; assay type: in vivo, mice
Procedure: FIG. 33A is a line graph showing stool bacteria analysis performed by 16S rRNA sequencing, in accordance with embodiments of the invention. Five week old mice were administered vancomycin for one week. Then vancomycin was stopped, and mice were given oral gavage of C. scindens or vehicle (cessation). Measurements were taken twenty-four hours after gavage. Alpha diversity is shown.
FIG. 33B is a dot plot showing stool bacteria analysis performed by 16S rRNA sequencing, in accordance with embodiments of the invention. Five week old mice were administered vancomycin for one week. Then vancomycin was stopped, and mice were given oral gavage of C. scindens or vehicle (cessation). Measurements were taken twenty-four hours after gavage. Beta diversity is shown.
Mice were fed with vancomycin in drinking water (Hospira, 0.5 g/L) for one week. Fresh antibiotic water was replaced every other day. One week later vancomycin was stopped, and the mice were given oral gavage of 10^9 C. scindens or vehicle (anaerobic glycerol) every day for 5 days. C. scindens was purchased from ATCC (35704), and grown under anaerobic conditions. One day after gavage, the colonization of C. scindens were confirmed by real-time PCR using primers specific for C. scindens.
Mouse stool DNA extraction and 16S V4 tregion amplification were performed on the liquid handling robots (epMotion 5075 and epMotion 5073, Eppendorf, Hamburg, Germany). The V4 region of the 16S rDNA gene (515F-806R) was sequenced, generating partially overlapping, paired-end reads on the Illumina MiSeq platform (Illumina, San Diego, Calif., USA). After quality control filtering, a total of 3,979,728 reads were processed with an average of 132,657 reads per sample. The demultiplexed FASTQ files containing the 16S rRNA gene sequences were filtered for chimeric sequences using the USEARCH (Edgar, Bioinformatics, 26: 2460-2461 (2010), incorporated by reference herein; version 8.1.1831) utility's UCHIME implementation and the ‘gold’ database (version microbiomeutil-r20110519). The reads were then binned into Operational Taxonomic Units (OTUs) at 97% similarity using USEARCH's cluster_otus command. The OTUs thus obtained were classified and aligned using QIIME (Caporaso et al., Nat. Methods, 7: 335-336 (2010), incorporated by reference herein; version 1.9.1) scripts. The assign_taxonomy.py script was used to assign taxonomy using the default RDP method (Wang et al., Appl. Environ. Microbiol., 73: 5261-5267 (2007), incorporated by reference herein) and the default GreenGenes database (DeSantis et al., Appl. Environ. Microbiol., 72: 5069-5072 (2006), incorporated by reference herein). This provided insight into the larger trends at higher taxonomic levels (such as order Clostridiales).
Next, the possible role of Clostridium species on liver NKT cell accumulation was tested in a colonization experiment. Clostridium scindens was chosen because it is commonly found in both mice and human and has a conserved bai (“bile acid inducible”) gene operon for the 7α-dehydroxylation reaction. Mice were fed with vancomycin for one week to induce hepatic NKT cells, then vancomycin was stopped, and the mice were given C. scindens or vehicle. The successful colonization with Clostridium scindens was confirmed (FIG. 32). One day after oral gavage, fecal bacterial were analyzed by 16S rRNA sequencing (FIGS. 33A and 33B, Table 1).

[7] = fecal bacteria, one day after oral gavage

Compound	cxcl16 mRNA expression (CXCL16 [2])	hepatic CD4+ or CD8+ T cells (hepatic NKT cells [4])	hepatic NKT cells (hepatic NKT cells [4])	bile acids in the gut [5]	Clostridium in stool (Clostridum Cluster XIVa)	also measured
C[C@H](CCC(=O)O)[C@H]1CC[C@H]2[C@@H]3[C@H](O)C[C@@H]4C[C@H](O)CC[C@]4(C)[C@H]3CC[C@]12C [CDCA, chenodeoxycholic acid]	induced	–	–	–	–	hepatic NKT accumulation (hepatic NKT cells [1]): enhanced NKT cell accumulation
C[C@H](CCC(=O)NCCS(=O)(=O)O)[C@H]1CC[C@H]2[C@@H]3[C@@H](O)[C@@H](O)[C@@H]4C[C@H](O)CC[C@]4(C)[C@H]3CC[C@]12C [T-β-MCA, Tauro-β-muricholic acid]	–	–	–	–	–	cxcl16 mRNA expression (CXCL16 [3]): induced
CCN1CCN(C(=O)N[C@@H](C(=O)N[C@@H]2C(=O)N3C(C(=O)O)=C(CSc4nnnn4C)CS[C@H]23)c2ccc(O)cc2)C(=O)C1=O [cefoperazone]	–	No significant changes	increase of liver NKT cells	deplete secondary bile acids and increase primary bile acids in the gut	–	–
CN[C@H](CC(C)C)C(=O)N[C@H]1C(=O)N[C@@H](CC(N)=O)C(=O)N[C@H]2C(=O)N[C@H]3C(=O)N[C@H](C(=O)N[C@H](C(=O)O)c4cc(O)cc(O)c4-c4cc3ccc4O)[C@H](O)c3ccc(c(Cl)c3)Oc3cc2cc(c3O[C@@H]2O[C@H](CO)[C@@H](O)[C@H](O)[C@H]2O[C@H]2C[C@](C)(N)[C@H](O)[C@H](C)O2)Oc2ccc(cc2Cl)[C@H]1O [vancomycin]	–	No significant changes	sufficient to increase hepatic NKT cells	deplete secondary bile acids and increase primary bile acids in the gut	depleted Clostridium	fecal secondary bile acids ([6]; obese individuals): decreased fecal secondary bile acids; primary bile acids in plasma ([6]; postprandial): postprandial increase in primary bile acids in plasma; Bacteroidales (stool bacteria; [7]): 0.0%; Burkholderiales (stool bacteria; [7]): 4.4%; Clostridiales (stool bacteria; [7]): 3.9%; Enterobacteriales (stool bacteria; [7]): 10.7%; Lactobacillales (stool bacteria; [7]): 43.7%; Verrucomicrobiales (stool bacteria; [7]): 34.3%; change of stool bacteria populations, in words (stool bacteria; vancomycin compared to H2O group, C. scindens gavage after vancomycin): reduction of Clostridiales and Bacteroidales but an expansion of Verrucomicrobiales
C[C@H](CCC(=O)NCCS(=O)(=O)O)[C@H]1CC[C@H]2[C@@H]3[C@H](O)C[C@@H]4C[C@H](O)CC[C@]4(C)[C@H]3C[C@H](O)[C@]12C [TCA, Taurocholic acid]	induced	–	–	–	–	–
neomycin	–	No significant changes	little effect	–	could not remove Clostridium	–
